Publication PMC9698358, “The Discovery of Novel Ferulic Acid Derivatives Incorporating Substituted Isopropanolamine Moieties as Potential Tobacco Mosaic Virus Helicase Inhibitors” (International Journal of Molecular Sciences, 2022)

How the values were obtained:
TMV helicase [1] = target: T1, TMV helicase (Tobacco mosaic virus, UniProt Q9IBK4); assay: ATPase activity, malachite green phosphate release; type: biochemical
T1 construct: helicase domain of the 126/183 kDa replicase

TMV helicase [2] = target: T1, TMV helicase; assay: microscale thermophoresis; type: binding

T1 sequence (Q9IBK4 entry or part of it): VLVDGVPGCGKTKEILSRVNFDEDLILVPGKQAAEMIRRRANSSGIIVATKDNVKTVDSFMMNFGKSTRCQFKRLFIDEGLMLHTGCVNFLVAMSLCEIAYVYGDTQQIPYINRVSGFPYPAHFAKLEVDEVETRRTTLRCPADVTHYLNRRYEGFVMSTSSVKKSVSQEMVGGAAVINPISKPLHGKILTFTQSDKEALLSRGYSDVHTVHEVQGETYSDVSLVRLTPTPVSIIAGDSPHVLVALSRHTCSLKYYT

Row | SMILES | inhibition at 200 µM (TMV helicase [1]) | Kd (TMV helicase [2])
1 | COc1cc(/C=C/C(=O)O)ccc1O [FA, 3-methoxy-4-hydroxycinnamic acid] | 26.4% | –
2 | COC(=O)/C=C/c1ccc(OCC(O)CN2CCN(Cc3ccccc3C)CC2)c(OC)c1 (stereo not shown) [A31] | 47% | 13.5 µM
3 | COC(=O)/C=C/c1ccc(OC[C@@H](O)CN2CCOCC2)c(OC)c1 [S-A19] | 44.5% | 22.8 µM
4 | COC(=O)/C=C/c1ccc(OC[C@H](O)CN2CCOCC2)c(OC)c1 [R-A19] | 50.6% | 5.4 µM
